{"source": "patent US11344498B2", "about": "“Compositions and methods for on-demand high-efficiency triggerable anesthesia” (priority 2015, dated 2022)", "key": {"[1]": {"description": "Animals were anesthetized with isoflurane-oxygen and injected with 50 μL of 10 mg/mL sulforhodamine B PBS solution at the sciatic nerve co-injected with or without 50 μL of 50 μg/mL DMED. […] The supernatant was collected and methanol was added at a 1:1 vol ratio. […] The concentration of sulforhodamine B was analyzed by fluorescence (excitation/emission: 560/580 nm).\nLiposomal pharmacokinetics studies were performed by co-injecting 200 μL of Lipo-PS-Srho with 200 μL of Lipo or Lipo-DMED at the sciatic nerve. At predetermined time points (30 min, 3 h, 7 h and 10 h), blood was harvested by tail-bleeding."}, "[2]": {"test_system": "sciatic nerves and adjacent tissues", "settings": "rat, in vivo"}, "[3]": {"test_system": "sciatic nerve", "assay": "Motor nerve block, weight-bearing test (TTX, ultrasound, microbubbles)", "settings": "rat, in vivo"}}, "note": "Like-named read-outs stand apart in the source and are kept apart here."}
{"smiles": "Cc1cccc([C@H](C)c2cnc[nH]2)c1C", "note": "[DMED, (S)-4-[1-(2,3-Dimethylphenyl)ethyl]-3H-imidazole]", "values": [{"measurement": "decrease of peak Srho plasma concentration", "setting": "[1]; rat, in vivo", "result": 27.5, "unit": "%"}, {"measurement": "time to peak Srho plasma level", "setting": "[1]; rat, in vivo", "result": 60, "unit": "min"}]}
{"smiles": "N=C1N[C@@H](O)[C@H]2[C@@H]3OC4(O)OC(C(O)[C@@]2(N1)[C@@H]4O)[C@]3(O)CO", "note": "(stereo partly drawn) [TTX, Tetrodotoxin]", "values": [{"measurement": "inflammation score", "setting": "[2]", "result": 1}, {"measurement": "myotoxicity score", "setting": "[2]", "result": 0}, {"measurement": "median duration of motor nerve block", "setting": "[3]", "result": 0, "unit": "min"}]}
{"smiles": "CCN(CC)c1ccc2c(-c3ccc(S(=O)(=O)O)cc3S(=O)(=O)[O-])c3ccc(=[N+](CC)CC)cc-3oc2c1", "note": "[Srho, sulforhodamine B]", "values": [{"measurement": "time to peak Srho plasma level", "setting": "[1]; free Srho without DMED", "result": 30, "unit": "min"}]}
